How the values were obtained:
Cyclooxygenase COX-1 = Cyclooxygenase COX-1 (Homo sapiens, UniProt P23219); assay: Safety screen; type: biochemical
Procedure: (§1) Blood cell counts, kinase profiler, safety screen, bacterial cytotoxicity, Ames, micronucleus assays were performed by the company Eurofins (France). The kinase profiler was performed by the company Eurofins (Discovery, Panlab and Cerep).

[1] = target: Peptidase, CTSG (Cathepsin G) (Homo sapiens, UniProt P08311); assay: Safety screen; type: biochemical
Procedure: (§2) Blood cell counts, kinase profiler, safety screen, bacterial cytotoxicity, Ames, micronucleus assays were performed by the company Eurofins (France).

Adenosine A1 = Adenosine A1 (Homo sapiens, UniProt P30542); assay: Safety screen; type: binding
Procedure: (§3) The kinase profiler was performed by the company Eurofins (Discovery, Panlab and Cerep).

[2] = target: Cholecystokinin CCK1 (CCKA) (Homo sapiens, UniProt P32238); assay: Safety screen; type: binding
Procedure: as §2

Dopamine D2L = Dopamine D2L (Homo sapiens, UniProt P14416); assay: Safety screen; type: binding
Dopamine D2L, sequence (P14416 whole entry): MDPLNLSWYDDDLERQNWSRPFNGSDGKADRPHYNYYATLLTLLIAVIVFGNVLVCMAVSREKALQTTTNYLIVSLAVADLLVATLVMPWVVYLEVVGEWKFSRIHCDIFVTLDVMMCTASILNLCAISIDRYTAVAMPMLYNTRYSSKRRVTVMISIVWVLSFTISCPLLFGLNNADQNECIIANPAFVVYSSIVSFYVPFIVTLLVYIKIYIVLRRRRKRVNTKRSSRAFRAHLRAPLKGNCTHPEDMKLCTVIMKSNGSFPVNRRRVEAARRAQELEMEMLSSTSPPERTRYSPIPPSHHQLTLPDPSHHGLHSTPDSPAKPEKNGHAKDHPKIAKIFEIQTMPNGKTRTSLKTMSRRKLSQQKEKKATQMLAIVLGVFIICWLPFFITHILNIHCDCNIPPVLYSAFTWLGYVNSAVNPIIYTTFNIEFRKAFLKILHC
Procedure: as §2

Estrogen ERα = Estrogen ERα (Homo sapiens, UniProt P03372); assay: Safety screen; type: binding
Estrogen ERα, sequence (P03372 whole entry): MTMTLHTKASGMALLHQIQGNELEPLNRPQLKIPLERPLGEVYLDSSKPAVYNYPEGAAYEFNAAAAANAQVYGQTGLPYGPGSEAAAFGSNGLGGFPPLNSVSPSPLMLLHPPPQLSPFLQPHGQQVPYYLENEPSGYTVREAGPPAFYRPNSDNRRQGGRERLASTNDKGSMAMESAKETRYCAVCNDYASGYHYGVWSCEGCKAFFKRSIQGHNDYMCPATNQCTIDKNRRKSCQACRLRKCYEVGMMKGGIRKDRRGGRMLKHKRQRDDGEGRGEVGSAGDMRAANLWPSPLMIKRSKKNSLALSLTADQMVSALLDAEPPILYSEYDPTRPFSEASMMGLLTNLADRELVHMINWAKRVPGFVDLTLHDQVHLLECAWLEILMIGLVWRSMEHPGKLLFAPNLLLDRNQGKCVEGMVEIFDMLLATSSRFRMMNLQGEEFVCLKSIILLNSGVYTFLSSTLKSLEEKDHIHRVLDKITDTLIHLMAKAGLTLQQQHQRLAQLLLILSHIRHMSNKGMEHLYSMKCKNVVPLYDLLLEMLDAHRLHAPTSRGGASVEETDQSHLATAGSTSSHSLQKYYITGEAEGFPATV
Procedure: as §2

Glucocorticoid = Glucocorticoid (Homo sapiens, UniProt P04150); assay: Safety screen; type: binding
Procedure: as §2

Histamine H2 = Histamine H2 (Homo sapiens, UniProt P25021); assay: Safety screen; type: binding
Procedure: as §1

Melanocortin MC1 = Melanocortin MC1 (Homo sapiens, UniProt Q01726); assay: Safety screen; type: binding
Procedure: as §2

Neuropeptide Y Y1 = Neuropeptide Y Y1 (Homo sapiens, UniProt P25929); assay: Safety screen; type: binding
Neuropeptide Y Y1, sequence (P25929 whole entry): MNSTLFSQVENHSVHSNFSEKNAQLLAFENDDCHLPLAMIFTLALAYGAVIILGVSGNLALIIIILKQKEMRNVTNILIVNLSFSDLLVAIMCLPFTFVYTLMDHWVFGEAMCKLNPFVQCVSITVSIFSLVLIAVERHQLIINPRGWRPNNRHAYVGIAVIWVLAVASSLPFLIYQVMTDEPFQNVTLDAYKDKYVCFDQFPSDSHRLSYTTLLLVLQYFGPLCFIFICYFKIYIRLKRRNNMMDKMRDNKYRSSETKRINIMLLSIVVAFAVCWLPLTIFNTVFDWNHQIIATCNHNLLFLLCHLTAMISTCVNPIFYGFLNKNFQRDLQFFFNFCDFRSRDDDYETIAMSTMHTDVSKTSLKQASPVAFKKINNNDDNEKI
Procedure: as §2

Opiate κ(OP2, KOP) = Opiate κ(OP2, KOP) (Homo sapiens, UniProt P41145); assay: Safety screen; type: binding
Procedure: as §1

[3] = target: Platelet Activating Factor (PAF) (Homo sapiens, UniProt P25105); assay: Safety screen; type: binding
Procedure: as §1

Potassium Channel [KATP] = Potassium Channel [KATP] (Cricetus cricetus, UniProt Q09427); assay: Safety screen; type: binding, hamster
Procedure: as §1

[4] = target: Serotonin (5-Hydroxytryptamine) 5-HT2A (Homo sapiens, UniProt P28223); assay: Safety screen; type: binding
Procedure: as §1

[5] = target: Serotonin (5-Hydroxytryptamine) 5-HT2B (Homo sapiens, UniProt P41595); assay: Safety screen; type: binding
Procedure: as §2

ARK5(h) = ARK5(h) (Homo sapiens, UniProt O60285); assay: Kinase Profiler; type: biochemical
Procedure: as §1

Axl(h) = Axl(h) (Homo sapiens, UniProt P30530); assay: Kinase Profiler; type: biochemical
Procedure: as §1

BTK(h) = BTK(h) (Homo sapiens, UniProt Q06187); assay: Kinase Profiler; type: biochemical
BTK(h), sequence (Q06187 whole entry): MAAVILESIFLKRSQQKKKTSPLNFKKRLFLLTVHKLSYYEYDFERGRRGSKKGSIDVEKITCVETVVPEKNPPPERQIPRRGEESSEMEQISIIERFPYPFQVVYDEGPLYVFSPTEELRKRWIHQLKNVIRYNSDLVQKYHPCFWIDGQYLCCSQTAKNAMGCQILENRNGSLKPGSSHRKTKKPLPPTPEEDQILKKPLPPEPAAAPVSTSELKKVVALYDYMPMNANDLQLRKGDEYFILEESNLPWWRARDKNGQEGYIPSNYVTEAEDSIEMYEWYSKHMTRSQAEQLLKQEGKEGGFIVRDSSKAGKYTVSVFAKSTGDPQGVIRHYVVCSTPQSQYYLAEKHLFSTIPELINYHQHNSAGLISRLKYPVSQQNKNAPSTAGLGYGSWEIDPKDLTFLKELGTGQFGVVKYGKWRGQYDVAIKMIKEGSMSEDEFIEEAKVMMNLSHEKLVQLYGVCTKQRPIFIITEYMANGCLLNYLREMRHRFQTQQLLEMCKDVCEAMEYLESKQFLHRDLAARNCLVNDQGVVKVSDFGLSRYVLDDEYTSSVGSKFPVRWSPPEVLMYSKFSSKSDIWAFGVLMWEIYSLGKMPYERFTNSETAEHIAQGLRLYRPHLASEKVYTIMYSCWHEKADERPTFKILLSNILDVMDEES
Procedure: as §1

CaMKIγ(h) = CaMKIγ(h) (Homo sapiens, UniProt Q96NX5); assay: Kinase Profiler; type: biochemical
Procedure: as §3

CaMKIV(h) = CaMKIV(h) (Homo sapiens, UniProt Q16566); assay: Kinase Profiler; type: biochemical
Procedure: as §3

EphB2(h) = EphB2(h) (Homo sapiens, UniProt P29323); assay: Kinase Profiler; type: biochemical
Procedure: as §1

ErbB2(h) = ErbB2(h) (Homo sapiens, UniProt P04626); assay: Kinase Profiler; type: biochemical
Procedure: as §3

GCK(h) = GCK(h) (Homo sapiens, UniProt Q12851); assay: Kinase Profiler; type: biochemical
Procedure: as §3

JAK1(h) = JAK1(h) (Homo sapiens, UniProt P23458); assay: Kinase Profiler; type: biochemical
JAK1(h), sequence (P23458 whole entry): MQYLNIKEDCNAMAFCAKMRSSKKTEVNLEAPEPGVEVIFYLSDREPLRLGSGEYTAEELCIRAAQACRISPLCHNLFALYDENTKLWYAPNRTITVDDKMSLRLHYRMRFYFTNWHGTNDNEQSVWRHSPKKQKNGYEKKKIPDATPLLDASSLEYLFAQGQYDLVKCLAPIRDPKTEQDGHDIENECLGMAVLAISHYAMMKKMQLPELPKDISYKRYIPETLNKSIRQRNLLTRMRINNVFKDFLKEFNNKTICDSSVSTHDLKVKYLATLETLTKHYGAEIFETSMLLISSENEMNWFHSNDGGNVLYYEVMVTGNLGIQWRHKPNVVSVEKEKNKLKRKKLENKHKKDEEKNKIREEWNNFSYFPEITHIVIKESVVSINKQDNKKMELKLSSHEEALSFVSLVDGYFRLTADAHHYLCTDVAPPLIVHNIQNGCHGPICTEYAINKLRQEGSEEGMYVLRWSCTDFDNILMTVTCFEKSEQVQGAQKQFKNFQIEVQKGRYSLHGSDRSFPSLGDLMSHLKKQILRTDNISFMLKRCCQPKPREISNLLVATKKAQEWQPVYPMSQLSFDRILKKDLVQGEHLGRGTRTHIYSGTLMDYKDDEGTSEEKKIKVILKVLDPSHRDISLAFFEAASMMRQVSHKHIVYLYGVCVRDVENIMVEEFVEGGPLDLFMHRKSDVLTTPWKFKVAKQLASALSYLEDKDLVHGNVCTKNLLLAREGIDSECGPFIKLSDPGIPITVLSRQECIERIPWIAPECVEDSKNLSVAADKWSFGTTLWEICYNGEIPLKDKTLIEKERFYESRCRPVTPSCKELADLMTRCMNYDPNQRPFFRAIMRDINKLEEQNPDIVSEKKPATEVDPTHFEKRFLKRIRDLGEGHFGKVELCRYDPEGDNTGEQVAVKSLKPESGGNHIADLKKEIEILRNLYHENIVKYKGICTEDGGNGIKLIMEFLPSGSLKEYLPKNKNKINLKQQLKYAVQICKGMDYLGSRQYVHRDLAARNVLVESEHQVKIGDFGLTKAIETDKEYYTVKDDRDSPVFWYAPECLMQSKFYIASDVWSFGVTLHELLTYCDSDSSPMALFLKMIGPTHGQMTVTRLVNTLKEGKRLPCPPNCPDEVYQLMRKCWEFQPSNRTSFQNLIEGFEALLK
Procedure: as §3

JAK3(h) = JAK3(h) (Homo sapiens, UniProt P52333); assay: Kinase Profiler; type: biochemical
Procedure: as §3

MKK3(h) = MKK3(h) (Homo sapiens, UniProt P46734); assay: Kinase Profiler; type: biochemical
Procedure: as §3

MLK2(h) = MLK2(h) (Homo sapiens, UniProt Q02779); assay: Kinase Profiler; type: biochemical
Procedure: as §1

MSK2(h) = MSK2(h) (Homo sapiens, UniProt O75676); assay: Kinase Profiler; type: biochemical
Procedure: as §1

PDHK2(h) = PDHK2(h) (Homo sapiens, UniProt Q15119); assay: Kinase Profiler; type: biochemical
Procedure: as §1

Pim-2(h) = Pim-2(h) (Homo sapiens, UniProt Q9P1W9); assay: Kinase Profiler; type: biochemical
Procedure: as §1

PRK2(h) = PRK2(h) (Homo sapiens, UniProt Q16513); assay: Kinase Profiler; type: biochemical
PRK2(h), sequence (Q16513 whole entry): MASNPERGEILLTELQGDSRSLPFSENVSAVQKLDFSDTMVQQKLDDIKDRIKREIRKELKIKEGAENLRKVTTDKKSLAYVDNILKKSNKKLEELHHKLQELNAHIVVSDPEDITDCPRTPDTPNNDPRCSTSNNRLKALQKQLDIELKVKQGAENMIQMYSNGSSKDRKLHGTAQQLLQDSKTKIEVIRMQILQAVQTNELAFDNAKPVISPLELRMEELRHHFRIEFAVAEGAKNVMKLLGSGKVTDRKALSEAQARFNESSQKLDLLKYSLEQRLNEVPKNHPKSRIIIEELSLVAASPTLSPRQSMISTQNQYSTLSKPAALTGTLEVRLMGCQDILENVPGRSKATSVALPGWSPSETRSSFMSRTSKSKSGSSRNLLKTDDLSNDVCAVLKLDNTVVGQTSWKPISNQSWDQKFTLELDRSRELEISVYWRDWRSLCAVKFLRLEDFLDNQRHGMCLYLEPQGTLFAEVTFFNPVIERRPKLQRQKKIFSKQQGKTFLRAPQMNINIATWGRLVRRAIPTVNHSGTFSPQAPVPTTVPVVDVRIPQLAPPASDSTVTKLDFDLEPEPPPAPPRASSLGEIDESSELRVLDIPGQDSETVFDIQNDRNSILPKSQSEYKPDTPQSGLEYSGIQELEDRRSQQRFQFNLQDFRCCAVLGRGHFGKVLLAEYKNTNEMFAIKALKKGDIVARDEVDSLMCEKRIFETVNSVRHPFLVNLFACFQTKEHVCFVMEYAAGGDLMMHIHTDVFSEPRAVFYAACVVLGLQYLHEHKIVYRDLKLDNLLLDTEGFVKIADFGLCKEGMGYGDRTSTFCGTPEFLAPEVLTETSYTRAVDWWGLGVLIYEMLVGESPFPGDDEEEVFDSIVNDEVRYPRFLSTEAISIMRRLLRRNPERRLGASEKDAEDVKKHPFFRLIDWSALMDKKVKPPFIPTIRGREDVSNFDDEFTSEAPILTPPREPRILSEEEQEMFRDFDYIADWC
Procedure: as §3

Rsk4(h) = Rsk4(h) (Homo sapiens, UniProt Q9UK32); assay: Kinase Profiler; type: biochemical
Procedure: as §3

SGK3(h) = SGK3(h) (Homo sapiens, UniProt Q96BR1); assay: Kinase Profiler; type: biochemical
Procedure: as §3

STK32B(h) = STK32B(h) (Homo sapiens, UniProt Q9NY57); assay: Kinase Profiler; type: biochemical
Procedure: as §3

STK33(h) = STK33(h) (Homo sapiens, UniProt Q9BYT3); assay: Kinase Profiler; type: biochemical
Procedure: as §3

TAO2(h) = TAO2(h) (Homo sapiens, UniProt Q9UL54); assay: Kinase Profiler; type: biochemical
Procedure: as §1

TrkC(h) = TrkC(h) (Homo sapiens, UniProt Q16288); assay: Kinase Profiler; type: biochemical
TrkC(h), sequence (Q16288 32-839): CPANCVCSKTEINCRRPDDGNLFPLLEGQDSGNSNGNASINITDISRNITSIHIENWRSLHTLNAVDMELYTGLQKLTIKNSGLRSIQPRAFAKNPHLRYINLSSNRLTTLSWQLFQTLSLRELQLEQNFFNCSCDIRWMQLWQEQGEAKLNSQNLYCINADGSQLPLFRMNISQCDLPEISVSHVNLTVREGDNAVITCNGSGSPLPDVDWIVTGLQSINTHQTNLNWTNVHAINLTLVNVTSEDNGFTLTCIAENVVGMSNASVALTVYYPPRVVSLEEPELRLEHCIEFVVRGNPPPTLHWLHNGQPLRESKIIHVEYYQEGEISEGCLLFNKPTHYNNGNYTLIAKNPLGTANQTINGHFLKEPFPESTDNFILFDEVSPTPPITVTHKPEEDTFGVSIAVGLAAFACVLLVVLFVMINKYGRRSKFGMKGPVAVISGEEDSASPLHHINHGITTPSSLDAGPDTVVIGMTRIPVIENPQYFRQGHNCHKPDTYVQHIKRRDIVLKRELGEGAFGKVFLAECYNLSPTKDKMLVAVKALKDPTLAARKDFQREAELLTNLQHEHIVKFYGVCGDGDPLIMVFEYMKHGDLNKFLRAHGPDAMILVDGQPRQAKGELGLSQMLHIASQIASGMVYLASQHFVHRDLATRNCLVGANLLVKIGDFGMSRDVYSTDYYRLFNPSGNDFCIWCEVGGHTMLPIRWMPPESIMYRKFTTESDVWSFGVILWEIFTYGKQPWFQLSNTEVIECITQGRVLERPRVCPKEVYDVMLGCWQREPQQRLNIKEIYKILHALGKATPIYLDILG
Procedure: as §3

TTK(h) = TTK(h) (Homo sapiens, UniProt P33981); assay: Kinase Profiler; type: biochemical
Procedure: as §3

ULK2(h) = ULK2(h) (Homo sapiens, UniProt Q8IYT8); assay: Kinase Profiler; type: biochemical
Procedure: as §1

PI3K (p120g)(h) = PI3K (p120g)(h) (Homo sapiens, UniProt P48736); assay: Kinase Profiler; type: biochemical
Procedure: as §1

PI3K (p110a/p85a)(h) = PI3K (p110a/p85a)(h) (Homo sapiens, UniProt P42336); assay: Kinase Profiler; type: biochemical
Procedure: as §3

COc1ccc(OC)c(NS(=O)(=O)c2ccc(NC(=O)CCSc3ccc(C)cc3)cc2)c1 [Compound A41]
% inh. (Cyclooxygenase COX-1): -11% | % inh. [1]: -2% | % inh. (Adenosine A1): 2% | % inh. [2]: 31% | % inh. (Dopamine D2L): 9% | % inh. (Estrogen ERα): 10% | % inh. (Glucocorticoid): 17% | % inh. (Histamine H2): -14% | % inh. (Melanocortin MC1): 14% | % inh. (Neuropeptide Y Y1): -2% | % inh. (Opiate κ(OP2, KOP)): 10% | % inh. [3]: 78% | % inh. (Potassium Channel [KATP]): 11% | % inh. [4]: 84% | % inh. [5]: 90% | Activity(%) (ARK5(h)): 106% | Activity(%) (Axl(h)): 101% | Activity(%) (BTK(h)): 117% | Activity(%) (CaMKIγ(h)): 121% | Activity(%) (CaMKIV(h)): 114% | Activity(%) (EphB2(h)): 97% | Activity(%) (ErbB2(h)): 116% | Activity(%) (GCK(h)): 114% | Activity(%) (JAK1(h)): 99% | Activity(%) (JAK3(h)): 106% | Activity(%) (MKK3(h)): 117% | Activity(%) (MLK2(h)): 109% | Activity(%) (MSK2(h)): 105% | Activity(%) (PDHK2(h)): 96% | Activity(%) (Pim-2(h)): 110% | Activity(%) (PRK2(h)): 110% | Activity(%) (Rsk4(h)): 128% | Activity(%) (SGK3(h)): 106% | Activity(%) (STK32B(h)): 105% | Activity(%) (STK33(h)): 98% | Activity(%) (TAO2(h)): 108% | Activity(%) (TrkC(h)): 104% | Activity(%) (TTK(h)): 103% | Activity(%) (ULK2(h)): 99% | Activity(%) (PI3K (p120g)(h)): 104% | Activity(%) (PI3K (p110a/p85a)(h)): 100%

Reference: paper PMC12281424, “A Rac-specific competitive inhibitor of guanine nucleotide binding reduces metastasis in triple-negative breast cancer” (Cell Reports Medicine, 2025)
